From patent publication US10100027B2, “Benzofuran analogue as NS4B inhibitor” (priority 2014, dated 2018)

What was measured:
Type in all cases: cell-based
[1] = system: HCV genotype 1b (HCV-1b) replicon cells; test: HCV genotype 1b replicon cell assay (luciferase, Bright-Glo); conditions: Hepatitis C virus, 72 h, HCV-1b (Con1) replicon cells, 3 days
Description: (§1) The EC50 and CC50 values of anti-HCV compounds were determined by HCV genotype 1a (HCV-1a) and 1b (HCV-1b) stable transfected replication (replicon) cells. The source of genotype 1a replicon is H77 clones containing K1691R, K2040R and S2204I adaptive mutations. The source of genotype 1b replicon is Con1 clones containing E1202G, T1280I and K1846T adaptive mutations.
(§2) HCV 1a (HCV-1a) and 1b (HCV-1b) gene subtype replicon system contains the related HCV gene subtype non-structural protein gene, G418 resistance gene NEO and luciferase gene, which results in that HCV related protein and luciferase can be stably expressed in cells. By detecting the level of expression of luciferase gene, the level of HCV replication can be determined. Therefore, the system is used as a model for screening the activity of anti-HCV compound in vitro.
(§3) The compound powder was dissolved in 100% DMSO. Then the compound was diluted 5 times with 6 points, and added into the cell plate with Echo liquid handler. Ensure the final concentration of DMSO was 0.5%. Each compound was tested in duplicate.
(§4) 4) Diluting cells to 8×10^4 cells/mL with the culture medium, adding the diluted cells into the compound-containing 96-well plate (Greiner, Cat. #655090) (100 μL/well, 8000 cells/well) with automatic liquid separator (Thermo Scientific). Then place into a 37° C., 5% CO2 incubator for 3 days. Cell control well: no compound, only containing 0.5% DMSO.
(§5) 6) Then adding luciferase substrate Bright-Glo, after incubation for 5 minutes, detecting the luciferase activity by microplate reader Envison (wavelength>700 nm); analyzing the anti-HCV inhibitory activity of the compounds according to luminescence data, which was used to calculate EC50 values.
(§6) The EC50 or CC50 values were obtained by nonlinear fitting regression on inhibition percentage (inh %) data with GraphPad Prism software.

[2] = system: HCV genotype 1a (HCV-1a) replicon cells; test: HCV genotype 1a replicon cell assay (luciferase, Bright-Glo); conditions: Hepatitis C virus, 72 h, HCV-1a (H77) replicon cells, 3 days
Description: as §1, §2, §3, §4, §5, §6

[3] = Cytotoxicity in HCV replicon cells (Cell Titer-fluor)
Description: as §1, §3, §4
5) Adding fluorescence substrate Cell Titer-fluor to the cell well, after incubation for 30 minutes, detecting the signal by microplate reader Envison (Ex at 405 nm and read at 515 nm). The effect of the compounds on the cytotoxicity of HCV replicon cells was analyzed according to the fluorescence data, which was used to calculate the CC50 values.
as §6

| Compound | EC50 [1] | EC50 [2] | CC50 at 3 days [3] |
| --- | --- | --- | --- |
| O=C(c1oc2c(C(F)(F)F)cc(C3CC3)cc2c1Cl)N1CCN(C23CC(C2)C3)C(=O)C1 [YD_0253] | 0.1 to 100 nM | 100 to 1000 nM | > 3000 nM |
| O=C1CN(N2CCN(C(=O)c3oc4c(C(F)(F)F)cc(C5CC5)cc4c3Cl)CC2=O)C(=O)N1 [YD_0272] | 100 to 1000 nM | 100 to 1000 nM | > 3000 nM |
| CN(C)C(=O)C1CCN(C(=O)c2oc3c(C(F)(F)F)cc(C4CC4)cc3c2Cl)CC1 [YD_0273] | 0.1 to 100 nM | 0.1 to 100 nM | > 3000 nM |
| O=C(c1oc2c(C(F)F)cc(C3CC3)cc2c1Cl)N1CCN(N2CCOC2=O)CC1 [YD_0278] | 0.1 to 100 nM | 0.1 to 100 nM | > 3000 nM |
| O=C(c1oc2c(C(F)(F)F)cc(C3CC3)cc2c1Cl)N1CCCN(N2CCOC2=O)CC1 [YD_0279] | 0.1 to 100 nM | 0.1 to 100 nM | > 3000 nM |
| O=C(c1oc2c(C(F)(F)F)cc(C3CC3)cc2c1Cl)N1CCN(C23CCC(CC2)CC3)C(=O)C1 [YD_0280] | 100 to 1000 nM | 100 to 1000 nM | > 3000 nM |
| CC(C)N(C)C(=O)C1CCN(C(=O)c2oc3c(C(F)(F)F)cc(C4CC4)cc3c2Cl)CC1 [YD_0302] | 1000 to 5000 nM | 100 to 1000 nM | > 3000 nM |
| CCN(C)C(=O)C1CCN(C(=O)c2oc3c(C(F)(F)F)cc(C4CC4)cc3c2Cl)CC1 [YD_0304] | 0.1 to 100 nM | 100 to 1000 nM | > 3000 nM |
| CN1CCN(C(=O)C2CCN(C(=O)c3oc4c(C(F)(F)F)cc(C5CC5)cc4c3Cl)CC2)CC1 [YD_0305] | 1000 to 5000 nM | 100 to 1000 nM | > 3000 nM |
| C[C@H]1COCCN1C(=O)C1CCN(C(=O)c2oc3c(C(F)(F)F)cc(C4CC4)cc3c2Cl)CC1 [YD_0311] | 100 to 1000 nM | 100 to 1000 nM | > 3000 nM |
| CCOC(=O)NN1CCN(C(=O)c2oc3c(C(F)(F)F)cc(C4CC4)cc3c2Cl)CC1 [YD_0312] | 100 to 1000 nM | 100 to 1000 nM | > 3000 nM |
| O=C(c1oc2c(C(F)(F)F)cc(C3CC3)cc2c1Cl)N1CCC(C(=O)N2CCC2)CC1 [YD_0313] | 0.1 to 100 nM | 0.1 to 100 nM | > 3000 nM |
| CN(C)C(=O)C1(C)CCN(C(=O)c2oc3c(C(F)(F)F)cc(C4CC4)cc3c2Cl)CC1 [YD_0317] | 1000 to 5000 nM | 100 to 1000 nM | > 3000 nM |
| CC1(C(=O)N2CC(O)C2)CCN(C(=O)c2oc3c(C(F)(F)F)cc(C4CC4)cc3c2Cl)CC1 [YD_0318] | 1000 to 5000 nM | 100 to 1000 nM | > 3000 nM |
| CC1CN(C)CCN1C(=O)C1CCN(C(=O)c2oc3c(C(F)(F)F)cc(C4CC4)cc3c2Cl)CC1 (stereo not drawn) [YD_0321] | 1000 to 5000 nM | 100 to 1000 nM | > 3000 nM |
| CC1CNCCN1C(=O)C1CCN(C(=O)c2oc3c(C(F)(F)F)cc(C4CC4)cc3c2Cl)CC1 (stereo not drawn) [YD_0322] | 100 to 1000 nM | 100 to 1000 nM | > 3000 nM |
| CC1CN(C(=O)C2CCN(C(=O)c3oc4c(C(F)(F)F)cc(C5CC5)cc4c3Cl)CC2)CCO1 (stereo not drawn) [YD_0323] | 100 to 1000 nM | 100 to 1000 nM | > 3000 nM |
| O=C(c1oc2c(C(F)(F)F)cc(C3CC3)cc2c1Cl)N1CCC(C(=O)N2CC3CC3C2)CC1 (stereo not drawn) [YD_0324] | 0.1 to 100 nM | 0.1 to 100 nM | > 3000 nM |
| CC1CN(C(=O)C2CCN(C(=O)c3oc4c(C(F)(F)F)cc(C5CC5)cc4c3Cl)CC2)CCN1C (stereo not drawn) [YD_0325] | 1000 to 5000 nM | 100 to 1000 nM | > 3000 nM |
| CC1CN(C(=O)C2CCN(C(=O)c3oc4c(C(F)(F)F)cc(C5CC5)cc4c3Cl)CC2)CCN1 (stereo not drawn) [YD_0326] | 1000 to 5000 nM | 100 to 1000 nM | > 3000 nM |
| O=C(Nc1ccc(Cl)cn1)C1CCN(C(=O)c2oc3c(C(F)(F)F)cc(C4CC4)cc3c2Cl)CC1 [YD_0327] | 1000 to 5000 nM | 100 to 1000 nM | > 3000 nM |
| CN(C(=O)C1CCN(C(=O)c2oc3c(C(F)(F)F)cc(C4CC4)cc3c2Cl)CC1)c1ccc(F)cn1 [YD_0329] | 100 to 1000 nM | 100 to 1000 nM | > 3000 nM |
| O=C(c1oc2c(C(F)(F)F)cc(C3CC3)cc2c1Cl)N1CCC(=O)N(C2CCCC2)CC1 [YD_0330] | 0.1 to 100 nM | 100 to 1000 nM | > 3000 nM |
| O=C1CN(N2CCN(C(=O)c3oc4c(C(F)(F)F)cc(C5CC5)cc4c3Cl)CC2)C(=O)N1 [YD_0331] | 0.1 to 100 nM | 0.1 to 100 nM | > 3000 nM |
